Tests used:
[1] = Inhibition of P-glycoprotein NBD2 domain assessed as quenching of intrinsic fluorescence at 60 uM; parameters: scale not given: the % may be the effect or the level left
[2] = target: ATP-dependent translocase ABCB1 (Homo sapiens, UniProt P08183); test: Inhibition of P-glycoprotein-mediated daunomycin transport in human K562/R7 cells assessed as accumulation at 5 uM; format: cell-based; parameters: scale not given: the % may be the effect or the level left; conditions: k562/r7, 5 µM
Chain of ATP-dependent translocase ABCB1 (P08183 whole entry, the tested form may be a part): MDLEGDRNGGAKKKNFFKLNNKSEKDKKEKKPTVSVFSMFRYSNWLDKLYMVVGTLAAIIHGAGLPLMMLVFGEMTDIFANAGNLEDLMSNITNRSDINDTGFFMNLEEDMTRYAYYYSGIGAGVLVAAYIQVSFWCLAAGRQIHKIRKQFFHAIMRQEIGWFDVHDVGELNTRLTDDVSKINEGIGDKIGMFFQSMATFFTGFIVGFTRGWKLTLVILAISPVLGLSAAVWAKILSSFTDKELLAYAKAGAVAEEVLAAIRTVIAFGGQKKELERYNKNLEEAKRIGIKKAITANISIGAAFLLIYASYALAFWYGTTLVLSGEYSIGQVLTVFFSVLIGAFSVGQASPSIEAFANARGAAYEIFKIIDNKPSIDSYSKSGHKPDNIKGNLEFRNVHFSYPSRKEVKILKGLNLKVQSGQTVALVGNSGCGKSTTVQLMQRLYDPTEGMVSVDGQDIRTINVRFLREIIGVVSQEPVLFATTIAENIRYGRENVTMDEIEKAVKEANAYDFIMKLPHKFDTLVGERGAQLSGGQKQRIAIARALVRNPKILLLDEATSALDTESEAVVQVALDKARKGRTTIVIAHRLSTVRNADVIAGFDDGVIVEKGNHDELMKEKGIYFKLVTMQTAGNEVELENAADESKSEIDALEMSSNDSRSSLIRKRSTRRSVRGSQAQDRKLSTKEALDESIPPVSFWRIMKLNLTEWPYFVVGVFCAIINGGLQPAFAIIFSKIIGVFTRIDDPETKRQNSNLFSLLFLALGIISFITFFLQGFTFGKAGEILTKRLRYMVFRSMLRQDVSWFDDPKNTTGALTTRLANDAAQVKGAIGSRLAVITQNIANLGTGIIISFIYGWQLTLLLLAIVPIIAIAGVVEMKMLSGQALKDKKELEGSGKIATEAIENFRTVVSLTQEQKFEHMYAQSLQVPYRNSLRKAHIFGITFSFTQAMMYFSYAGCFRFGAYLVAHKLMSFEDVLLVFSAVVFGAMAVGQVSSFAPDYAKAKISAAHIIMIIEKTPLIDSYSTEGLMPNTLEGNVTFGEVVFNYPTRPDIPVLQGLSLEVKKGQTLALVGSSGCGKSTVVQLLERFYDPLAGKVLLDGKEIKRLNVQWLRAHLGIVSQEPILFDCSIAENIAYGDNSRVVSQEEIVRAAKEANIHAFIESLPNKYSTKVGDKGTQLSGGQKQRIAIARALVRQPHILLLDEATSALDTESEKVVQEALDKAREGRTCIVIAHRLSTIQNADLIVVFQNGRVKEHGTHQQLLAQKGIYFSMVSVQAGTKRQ

[3] = Inhibition of P-glycoprotein NBD2 domain

| Structure (SMILES) | Activity [1] | Activity [2] | Kd [3] |
| --- | --- | --- | --- |
| CCCCCC(=O)O[C@H]1[C@@H](C)C[C@]2(OC(C)=O)C(=O)/C(C)=C/[C@@H]3[C@H](CC/C(COC(C)=O)=C/[C@@H]12)C3(C)C | 13.8% | 80% | – |
| CCCCCC(=O)O[C@H]1[C@@H](C)C[C@]2(OC(C)=O)C(=O)/C(C)=C/[C@@H]3[C@H](CC/C(CO)=C/[C@@H]12)C3(C)C | 78.5% | 95% | 16.9 µM |

Source: ChEMBL document CHEMBL1158894, “A new P-glycoprotein inhibitor from the caper spurge (Euphorbia lathyris)” (J Nat Prod, 2003)
